In patent EP0226513A1, “Peptides capable of inhibiting interactions between antigens and lymphocytes T4, products derived therefrom and their applications” (INSTITUT PASTEUR, priority 1985, dated 1987):
Where no end group is shown, it is not given here.

Columns and labels:
[1] = test system: interactions entre les macrophages et les lymphocytes auxiliaires (lymphocytes T4) et entre les lymphocytes T4 et les lymphocytes B; test: In vitro cell interaction tests in the system of FISHER et al (influenza virus); assay type: cell-based; settings: individually or in synergy tests
lymphocytes T = test: T-lymphocyte proliferation test induced by influenza virus A/Bangkok, fresh cells (tritiated thymidine incorporation); assay type: cell-based, humain; settings: result in words
[2] = test system: lymphocytes T, lymphocytes B, monocytes; assay type: cell-based, humain; settings: result in words; b210: peptides of different length compared, 0,1-10 µg/ml
lymphocytes T, monocytes = test: Proliferation after separate preincubation of purified T lymphocytes and monocytes with peptides or antibodies (synergy of inhibition); assay type: cell-based, humain; settings: T lymphocytes preincubated with the labelled substance, monocytes preincubated with "T₄-12"; sub-inhibitory concentrations
Protocol: Les monocytes sont obtenus après adhérence des cellules mononucléées (10⁷ /ml) sur boîte de Pétri (Corning) pendant une heure à 37°C. Ces boîtes de Pétri ont été préalablement incubées à 4°C avec du SVF décomplémenté, durant la nuit. Après avoir récupéré les cellules non adhérentes, les cellules adhérentes sont dé-tachées avec un barreau caoutchouté (rubber policeman) et par un pipettage vigoureux. Après deux lavages, elles sont irradiées à 4000 rads (IBL 137, source CS-137, CEA).
Les monocytes restants sont séparés des cellules non adhérentes par un traitement à la L-méthylleucine ester (5.10⁶ /ml, 5 mM final, Sigma) 40 minutes à tempé-rature ambiante (18). La réaction est arrêtée par addition de sérum AB humain (10 % final et lavages à froid).
Les lymphocytes T et B sont séparés par la technique des rosettes E. Les cellules T étant capables de former des rosettes en présence de globules rouges de mouton sensibilisés à la neuraminidase, après une incubation d'une heure à 0°C. Les cellules formant rosettes (E⁺) seront séparées des cellules ne formant pas rosettes (E⁻ ou B) par sédimentation sur gradient Ficoll-Hypaque. Les globules rouges de mouton sont lysés par choc hypotonique.
d'incubation des populations lymphoïdes purifiées avec les peptides ou des anticorps monoclonaux spécifiques des molé-cules T₄ et HLA-DR ont été effectuées. […]

Row | Compound | capacité d'inhiber in vitro les interactions entre les macrophages et les lymphocytes T4 et entre les lymphocytes T4 et les lymphocytes B [1] | inhibition de la prolifération spécifique du virus influenza des lymphocytes T (lymphocytes T) | inhibition de la production d'anticorps anti-influenza [2] | synergie d'inhibition de la prolifération (lymphocytes T, monocytes)
1 | CC(C)[C@H](N)C(=O)N[C@@H](CCCNC(=N)N)C(=O)N[C@@H](Cc1ccccc1)C(=O)N[C@@H](CC(=O)O)C(=O)N[C@@H](CO)C(=O)N[C@@H](CC(=O)O)C(=O)O [XIII, H₂N-VRFDSD-OH] | capables | – | – | –
2 | LRFDSD [XIV, H₂N―――LRFDSD―――OH] | capables | – | – | –
3 | LRFDSDL [DR-7, H₂N-LRFDSDL-OH] | – | intermédiaires | puis and intermédiaires | intermédiaire
